Test results taken from publication PMC10482825 (Scientific Reports, 2023).
Several values for one entry are separate records, joined by “and”; a condition that tells them apart may be missing. Equal entries are not always repeated. Where a SMILES comes first, the peptide text is derived from it.

Columns and labels:
[1] = system: the different tested pathogens; assay type: cell-based; settings: span over tested pathogens, undetected values disregarded
Text: (§1) The microbial strains used in this study were Bacillus subtilis (ATCC, 11774), Candida albicans (TIMM, 1768), Enterococcus faecalis (ATCC, 33186), Escherichia coli (ATCC, 11775), Klebsiella pneumoniae (ATCC, 13883), Methicillin-resistant Staphylococcus aureus (ATCC, BAA-41), Pseudomonas aeruginosa (ATCC, 10145), Salmonella enterica (ATCC, 14028), Serratia marcescens (ATCC, 13880), Staphylococcus aureus (ATCC, 25923) and Vibrio parahaemolyticus (ATCC, 17802). All microbial strains were cultivated overnight at 37 °C and 200 rpm, then subcultured and incubated for 3 h under the same incubation conditions to obtain the mid-logarithmic growth phase. The cultivated cells were washed twice with 10 mM Tris–HCl containing 5 mM D-glucose at pH 7.4 and suspended in the same buffer to be used in different assays, as previously described.
As a conclusive quantitative assessment, broth microtiter assay was used to determine the MIC values of each cryptide against B. subtilis, MRSA, S. enterica, P. aeruginosa, V. parahaemolyticus and C. albicans by following the guidelines of the Clinical and Laboratory Standards Institute (CLSI)[67], with slight modifications. Eighty microliters of 5 × 10^4 CFU/ml of each pathogen were dispensed into a 96-well polypropylene microtiter plate. The wells were then treated with 20 µl of serially diluted cryptides for 3 h at 37 °C. Gentamicin was used for positive controls at 0.2 mg/ml while an equivalent volume of acidified water was used for negative controls. The plates were then topped up with a final concentration of 1 × Mueller Hinton Broth (MHB) and incubated for 18 h under the same incubation conditions. MIC was detected as the lowest concentration of each cryptide that prevents the optically detectable microbial growth at OD = 600 nm.

[2] = system: P. aeruginosa; assay: Radial diffusion assay; assay type: cell-based, Pseudomonas aeruginosa (ATCC, 10145); settings: 5 µl of 500 µM per 3 mm well, 37 °C, mean ± SD
Text: as §1
(§2) The antimicrobial activity spectra of the selected cryptides were screened against all the mentioned microbial pathogens, except V. parahaemolyticus, by radial diffusion assay as previously described, with slight modifications. […] The plates were then incubated for 18 h, and the antimicrobial activities were measured in the absolute unit (AU), as previously described. […]
(§3) plate. The plates were then incubated for 12 h at 37 °C and antimicrobial activities were measured in the term of absolute unit (A.U). […]

[3] = system: E. faecalis; assay: Radial diffusion assay; assay type: cell-based, Enterococcus faecalis (ATCC, 33186); settings: 5 µl of 500 µM per 3 mm well, 37 °C, mean ± SD
Text: as §1, §2, §3

[4] = system: S. enterica; assay: Radial diffusion assay; assay type: cell-based, Salmonella enterica (ATCC, 14028); settings: 5 µl of 500 µM per 3 mm well, 37 °C, mean ± SD
Text: as §1, §2, §3

[5] = system: MRSA; assay: Radial diffusion assay; assay type: cell-based, Methicillin-resistant Staphylococcus aureus (ATCC, BAA-41); settings: 5 µl of 500 µM per 3 mm well, 37 °C, mean ± SD
Text: as §1, §2, §3

[6] = system: MRSA mature biofilm; assay: Antibiofilm microtiter plate assay (mature biofilm, crystal violet); assay type: cell-based, Methicillin-resistant Staphylococcus aureus (ATCC, BAA-41); settings: absorbance 600 nm, mean ± SD
Method: The antibiofilm activities of the selected cryptides against S. enterica and MRSA mature biofilms were examined by microtiter plate assay as previously described, with slight modification. During the mid-logarithmic phase, S. enterica and MRSA were suspended at the density of 1.7 × 10^8 CFU/ml in MHB. Then 100 µl of each bacterial suspension was dispensed into a vinyl 96 U-shaped-well plate and incubated overnight at 37 °C. The mature biofilms were washed with 10 mM Tris–HCl containing 5 mM D-glucose at pH 7.4 and treated for 8 h with 100 µl of two-fold serially diluted cryptides, under the same incubation conditions. A sterile MHB medium was used as the positive control while an equivalent volume of acidified water was used to treat the negative controls. The treated biofilms were washed twice with the same washing buffer and stained with 0.1% crystal violet for 15 min followed by rinsing with sterile distilled water twice and then dried for 30 min at 37 °C. The stain was dissolved with 33% acetic acid and transferred to an optically clear 96-well flat bottom plate which was then measured at 600 nm.
Table S.4 Antibiofilm activities of the selected Cryptides against S. enterica and MRSA. Microbial cells were suspended at 1.7 X 10^8 CFU/ml density, during the mid-logarithmic phase in MHB. Then, 96 U-shaped -well plates were inoculated with 100 µl of microbial suspension and incubated for 48 h at 37 °C. The formed biofilms were washed with 10 mM Tris-HCl and treated with 100 µl of different concentrations of each peptide for 24 h. The treated biomasses were washed and fixed with methanol for 15 min at -20 °C before staining with 0.1 % crystal violet. The stained biofilms were dissolved in 100 µl of 33 % acetic acid and the quantities of crystal violet stains were determined by measuring absorbance at 600 nm as an indicator of the remaining biomass after treatment. Untreated cells were used as negative control [indicating 100 % biofilm integrity] while the sterile medium was used as a positive control [indicating 0 % biofilm integrity].
S. enterica MRSA S. enterica MRSA S. enterica MRSA S. enterica MRSA S. enterica MRSA

[7] = system: S. aureus; assay: Radial diffusion assay; assay type: cell-based, Staphylococcus aureus (ATCC, 25923); settings: 5 µl of 500 µM per 3 mm well, 37 °C, mean ± SD
Text: as §1, §2, §3

[8] = system: B. subtilis; assay: Radial diffusion assay; assay type: cell-based, Bacillus subtilis (ATCC, 11774); settings: 5 µl of 500 µM per 3 mm well, 37 °C, mean ± SD
Text: as §1, §2, §3

[9] = system: K. pneumoniae; assay: Radial diffusion assay; assay type: cell-based, Klebsiella pneumoniae (ATCC, 13883); settings: 5 µl of 500 µM per 3 mm well, 37 °C, mean ± SD
Text: as §1, §2, §3

[10] = system: S. epidermidis; assay: Radial diffusion assay; assay type: cell-based; settings: 5 µl of 500 µM per 3 mm well, 37 °C, mean ± SD
Text: The antimicrobial activity spectra of the selected cryptides were screened against all the mentioned microbial pathogens, except V. parahaemolyticus, by radial diffusion assay as previously described, with slight modifications. We aimed to test different categories of pathogens on the WHO global priority due to their growing resistance to the available antibiotics such as P. aeruginosa, E. coli and K. pneumoniae in the critical category and Salmonella ssp. and S. aureus in the high category. Briefly, a total of 4 × 10^6 CFU of each pathogen was inoculated in 10 mL of an underlay agarose gel [0.03% w/v tryptone soy broth (TSB) medium, 1% w/v agarose and 0.02% v/v Tween 20 in 10 mM Tris–HCl] that was then poured into a 100-mm petri dish. After agarose solidification, 3 mm-diameter wells were punched by a sterile cork borer and 5 µl of 500 µM stock solution from each cryptide was added to each well. Melittin and acidified water were used as positive and negative controls, respectively. […] The plates were then incubated for 18 h, and the antimicrobial activities were measured in the absolute unit (AU), as previously described. […]
as §3

Row | Molecule | MBC values, range against the different tested pathogens [1] | MIC values, range against the different tested pathogens [1] | Antimicrobial activity (inhibition zone) P. aeruginosa [2] | Antimicrobial activity (inhibition zone) E. faecalis [3] | Antimicrobial activity (inhibition zone) S. enterica [4] | Antimicrobial activity (inhibition zone) MRSA [5] | Biofilm eradication MRSA, 12.5 µM [6] | Biofilm eradication MRSA, 25 µM [6] | Biofilm eradication MRSA, 50 µM [6] | Biofilm eradication MRSA, 100 µM [6] | Biofilm eradication MRSA, 200 µM [6] | Antimicrobial activity (inhibition zone) S. aureus [7] | Antimicrobial activity (inhibition zone) B. subtilis [8] | Antimicrobial activity (inhibition zone) K. pneumoniae [9] | Antimicrobial activity (inhibition zone) S. epidermidis [10]
1 | CC(C)C[C@H](NC(=O)[C@H](CCCNC(=N)N)NC(=O)[C@H](Cc1c[nH]c2ccccc12)NC(=O)[C@H](CCCNC(=N)N)NC(=O)[C@H](CC(C)C)NC(=O)[C@@H](N)Cc1ccccc1)C(=O)N[C@@H](CCCCN)C(=O)N[C@@H](Cc1ccccc1)C(=O)N[C@@H](CCCCN)C(=O)N[C@@H](CO)C(=O)N[C@@H](CCCCN)C(=O)N[C@H](C(=O)N[C@@H](Cc1c[nH]c2ccccc12)C(=O)N[C@@H](CS)C(=O)N1CCC[C@H]1C(=O)O)C(C)C [AD7] (H-FLRWRLKFKSKVWCP-OH) | 0.39 ~ 25 µM | 0.39 ~ 6.25 µM | – | – | – | – | – | – | – | – | – | – | – | – | –
2 | RHCLRSKRPPNVCPH [AD4, cationic cryptide from P. vannamei precursor DN34505 (Pl-crustin 2), chemically synthesised] | – | – | 0 A.U. | 14.7 ± 1.2 A.U. | 7.7 ± 1 A.U. | 12.2 ± 1.1 A.U. | 0% | 0.86 ± 3.1% | 11.53 ±1.4% | 27.05 ±1.3% | 35.86 ± 2.5% and 35.8% | 24.4 ± 0.9 A.U. | 13.8± 0.7 A.U. | 0 A.U. | 9 ± 0 A.U.
